Reference: patent US10457710B2, “Antimicrobial peptides, their variants and uses” (priority 2015, dated 2019)
Where a SMILES comes first, the peptide text is derived from it. [ ]: non-standard residue; d: D form.

How the values were obtained:
Format in all cases: cell-based
[1] = test system: clinical strains of Acinetobacter baumannii; experiment: MIC, microdilution, clinical strains; parameters: unit: μg/ml; conditions: 0.02% BSA, 0.2% acetic acid
Procedure: Minimum inhibition concetrations (MICs) were determined against Escherichia coli (ATCC 25922), Staphylococcus aureus (ATCC 25923), Klebsiella pneumoniae (ATCC 10031) and Pseudomonas aeruginosa (ATCC 27853). Also clinical strains of E. coli, K. pneumoniae, E. cloacae, P. aeruginosa, Serratia marcescens, Proteus mirabilis, S. pneumoniae, Acinetobacter baumannii, A. johnsonii and S. aureus were used for MICs assays. Additionally, clinical strains of yeast including Candida albicans, C. glabrata, C. parapsilosis and C. quillermondiae were used. The susceptibility of these microorganisms to Chain peptides were determined using micro broth dilution assay. Colonies of the respective microorganism from Muller Hinton (MH) agar plates incubated overnight were suspended in MH broth media and final concentration of microorganism was adjusted to 5.0×10^5 cfu/ml. An aliquot of 10 μl of each Chain peptide, or gentamicin, tetracycline as reference antibiotics were added in differing concentrations along with 90 μl of bacterial suspension to 96 well polypropylene plates and incubated at 37° C. for 20 to 24 hours. Concentrations of Chain peptides and reference antibiotics ranged from 0.125 to 128 μg/ml and the MICs were recorded as the lowest concentration with no visual growth of bacteria. Similarly, antifungal MICs were tested in Potato dextrose broth.
Clinical strains of yeasts including Candida albicans, C. glabrata, C. parapsilosis and C. quillermondiae were also tested with the 12 Chain peptides. The minimum inhibitory concentration (MICs) varied between these peptides and are presented in Tables 4a, 4b, 4c and 5a, 5b, 5c. Peptides Chain 105, 201 and 308 are broad spectrum antimicrobials with MICs between 0.5-32 μg/ml against all the bacteria and yeasts tested, except Serratia marcescens and Proteus mirabilis, against which the MICs were between 64-128 μg/ml. Peptide Chain 306 has narrow spectrum activity against E. coli at 1 μg/ml and for the rest of the bacterial strains at >32 μg/ml (FIG. 10c).

C. quillermondiae = experiment: MIC, clinical yeast strains; conditions: clinical yeast strain 1; D-form peptide; concentrations tested 0.125 to 128 μg/ml
Method in brief: (§1)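 MIC = lowest peptide concentration without visual growth after 20–24 h at 37° C. Range 0.125–128 μg/ml, inoculum 5.0×10^5 cfu/ml, microdilution format. Antifungal tests used potato dextrose broth; bacterial tests used MH broth.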

[2] = test system: clinical strains of Proteus mirabilis; experiment: MIC, microdilution, clinical strains; conditions: 0.02% BSA, 0.2% acetic acid
Method in brief: (§2)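 Overnight MH agar colonies were suspended in MH broth to 5.0×10^5 cfu/ml, mixed with serial peptide dilutions (0.125–128 μg/ml) and incubated at 37° C for 20 to 24 hours. Yeast MICs were run the same way in potato dextrose broth, and wells were scored visually.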

[3] = test system: clinical strains of P. aeruginosa; experiment: MIC, microdilution, clinical strains; conditions: 0.02% BSA, 0.2% acetic acid
Method in brief: as §2

[4] = test system: clinical strains of K. pneumoniae; experiment: MIC, microdilution, clinical strains; conditions: 0.02% BSA, 0.2% acetic acid
Method in brief: as §2

[5] = test system: clinical strains of E. coli; experiment: MIC, microdilution, clinical strains; conditions: microdilution, Muller Hinton broth-cation adjusted, 0.02% BSA, 0.2% acetic acid
Method in brief: as §2

[6] = test system: clinical strains of E. cloacae; experiment: MIC, microdilution, clinical strains; conditions: 0.02% BSA, 0.2% acetic acid
Method in brief: as §2

[7] = test system: clinical strains of S. pneumoniae; experiment: MIC, microdilution, clinical strains; conditions: 0.02% BSA, 0.2% acetic acid
Method in brief: as §2

[8] = test system: clinical strains of S. aureus; experiment: MIC, microdilution, clinical strains; conditions: 0.02% BSA, 0.2% acetic acid
Method in brief: as §2

[9] = test system: clinical strains of Serratia marcescens; experiment: MIC, microdilution, clinical strains; conditions: 0.02% BSA, 0.2% acetic acid
Method in brief: as §2

Candida albicans = experiment: MIC, clinical yeast strains; conditions: D-form peptide, concentrations tested 0.125 to 128 μg/ml
Method in brief: as §1

C. glabrata = experiment: MIC, clinical yeast strains; conditions: D-form peptide, concentrations tested 0.125 to 128 μg/ml
Method in brief: as §1

C. parapsilosis = experiment: MIC, clinical yeast strains; conditions: D-form peptide, concentrations tested 0.125 to 128 μg/ml
Method in brief: as §1

CC[C@@H](C)[C@@H](NC(=O)[C@@H](CC(C)C)NC(=O)[C@@H](CCCNC(=N)N)NC(=O)[C@H](N)CCCNC(=N)N)C(=O)N[C@H](Cc1c[nH]c2ccccc12)C(=O)N[C@H](CCCNC(=N)N)C(=O)N[C@H](CCCNC(=N)N)C(=O)N[C@H](Cc1ccccc1)C(=O)N[C@H](CCCCN)C(=O)N[C@H](Cc1c[nH]c2ccccc12)C(=O)N[C@H](CC(C)C)C(=O)N[C@H](CCCNC(=N)N)C(=O)O [Chain204D] (H-[dR][dR][dL][dI][dW][dR][dR][dF][dK][dW][dL][dR]-OH)
8: Minimum inhibitory concentration ([3]; Pseudomonas aeruginosa strain 3, Muller Hinton broth-cation adjusted) | Minimum inhibitory concentration ([3]; Pseudomonas aeruginosa strain 4, Muller Hinton broth-cation adjusted) | Minimum inhibitory concentration ([4]; Klebsiella pneumoniae strain 1, Muller Hinton broth-cation adjusted) | Minimum inhibitory concentration ([5]; Escherichia coli strain 1) | Minimum inhibitory concentration ([6]; Enterobacter cloacae strain 2, Muller Hinton broth-cation adjusted) | Minimum inhibitory concentration ([6]; Enterobacter cloacae strain 4, Muller Hinton broth-cation adjusted) | Minimum inhibitory concentration, Candida albicans strain 1 (Candida albicans; clinical yeast strain 1) | Minimum inhibitory concentration, Candida albicans strain 2 (Candida albicans; clinical yeast strain 2) | Minimum inhibitory concentration, Candida albicans strain 3 (Candida albicans; clinical yeast strain 3) | Minimum inhibitory concentration, Candida albicans strain 4 (Candida albicans; clinical yeast strain 4) | Minimum inhibitory concentration, Candida albicans strain 5 (Candida albicans; clinical yeast strain 5) | Minimum inhibitory concentration, C. glabrata strain 2 (C. glabrata; clinical yeast strain 2) | Minimum inhibitory concentration, C. parapsilosis strain 3 (C. parapsilosis; clinical yeast strain 3) | Minimum inhibitory concentration, C. parapsilosis strain 4 (C. parapsilosis; clinical yeast strain 4)
>128: Minimum inhibitory concentration ([2]; Proteus mirabilis strain 1, Muller Hinton broth-cation adjusted) | Minimum inhibitory concentration ([2]; Proteus mirabilis strain 4, Muller Hinton broth-cation adjusted) | Minimum inhibitory concentration ([2]; Proteus mirabilis strain 5, Muller Hinton broth-cation adjusted) | Minimum inhibitory concentration ([9]; Serratia marcescens strain 1, Muller Hinton broth-cation adjusted) | Minimum inhibitory concentration ([9]; Serratia marcescens strain 2, Muller Hinton broth-cation adjusted) | Minimum inhibitory concentration ([9]; Serratia marcescens strain 4, Muller Hinton broth-cation adjusted) | Minimum inhibitory concentration ([9]; Serratia marcescens strain 5, Muller Hinton broth-cation adjusted)
32: Minimum inhibitory concentration ([2]; Proteus mirabilis strain 2, Muller Hinton broth-cation adjusted) | Minimum inhibitory concentration, C. glabrata strain 3 (C. glabrata; clinical yeast strain 3) | Minimum inhibitory concentration, C. glabrata strain 4 (C. glabrata; clinical yeast strain 4)
16: Minimum inhibitory concentration ([3]; Pseudomonas aeruginosa strain 2, Muller Hinton broth-cation adjusted) | Minimum inhibitory concentration ([4]; Klebsiella pneumoniae strain 3, Muller Hinton broth-cation adjusted)
128: Minimum inhibitory concentration ([9]; Serratia marcescens strain 3, Muller Hinton broth-cation adjusted)
2: Minimum inhibitory concentration ([4]; Klebsiella pneumoniae strain 5, Muller Hinton broth-cation adjusted) | Minimum inhibitory concentration ([6]; Enterobacter cloacae strain 5, Muller Hinton broth-cation adjusted) | Minimum inhibitory concentration ([8]; Staphylococcus aureus strain 2, Muller Hinton broth-cation adjusted) | Minimum inhibitory concentration ([8]; Staphylococcus aureus strain 3, Muller Hinton broth-cation adjusted)
1: Minimum inhibitory concentration ([5]; Escherichia coli strain 2) | Minimum inhibitory concentration ([5]; Escherichia coli strain 3) | Minimum inhibitory concentration ([5]; Escherichia coli strain 4) | Minimum inhibitory concentration ([5]; Escherichia coli strain 5) | Minimum inhibitory concentration ([8]; Staphylococcus aureus strain 1, Muller Hinton broth-cation adjusted) | Minimum inhibitory concentration ([8]; Staphylococcus aureus strain 4, Muller Hinton broth-cation adjusted) | Minimum inhibitory concentration ([8]; Staphylococcus aureus strain 5, Muller Hinton broth-cation adjusted)
4: Minimum inhibitory concentration ([1]; Acinetobacter baumannii strain 1, Muller Hinton broth-cation adjusted) | Minimum inhibitory concentration ([1]; Acinetobacter baumannii strain 2, Muller Hinton broth-cation adjusted) | Minimum inhibitory concentration ([1]; Acinetobacter baumannii strain 3, Muller Hinton broth-cation adjusted) | Minimum inhibitory concentration ([1]; Acinetobacter baumannii strain 4, Muller Hinton broth-cation adjusted) | Minimum inhibitory concentration ([1]; Acinetobacter baumannii strain 5, Muller Hinton broth-cation adjusted) | Minimum inhibitory concentration, C. quillermondiae strain 1 (C. quillermondiae) | Minimum inhibitory concentration ([3]; Pseudomonas aeruginosa strain 1, Muller Hinton broth-cation adjusted) | Minimum inhibitory concentration ([3]; Pseudomonas aeruginosa strain 5, Muller Hinton broth-cation adjusted) | Minimum inhibitory concentration ([4]; Klebsiella pneumoniae strain 2, Muller Hinton broth-cation adjusted) | Minimum inhibitory concentration ([4]; Klebsiella pneumoniae strain 4, Muller Hinton broth-cation adjusted) | Minimum inhibitory concentration ([6]; Enterobacter cloacae strain 1, Muller Hinton broth-cation adjusted) | Minimum inhibitory concentration ([6]; Enterobacter cloacae strain 3, Muller Hinton broth-cation adjusted) | Minimum inhibitory concentration ([7]; Streptococcus pneumoniae strain 1, Muller Hinton broth-cation adjusted) | Minimum inhibitory concentration ([7]; Streptococcus pneumoniae strain 2, Muller Hinton broth-cation adjusted) | Minimum inhibitory concentration ([7]; Streptococcus pneumoniae strain 3, Muller Hinton broth-cation adjusted) | Minimum inhibitory concentration ([7]; Streptococcus pneumoniae strain 4, Muller Hinton broth-cation adjusted) | Minimum inhibitory concentration ([7]; Streptococcus pneumoniae strain 5, Muller Hinton broth-cation adjusted) | Minimum inhibitory concentration, C. glabrata strain 1 (C. glabrata; clinical yeast strain 1) | Minimum inhibitory concentration, C. parapsilosis strain 1 (C. parapsilosis; clinical yeast strain 1) | Minimum inhibitory concentration, C. parapsilosis strain 2 (C. parapsilosis; clinical yeast strain 2)
64: Minimum inhibitory concentration ([2]; Proteus mirabilis strain 3, Muller Hinton broth-cation adjusted)
